Common to all, as to assay: NCI-60 cell line screen, 48 h
Test [1] has as its system CAKI-1.
Test [2] relates to SNB-78.
Test [3] concerns HT-29.
The subject of test [4] is TK-10.
Test [5] has as its system SR.
Test [6] relates to ACHN.
Test [7] has as its system M14.
In test [8] the test system is DLD-1.
The test system of test [9] is HOP-18.
Test [10] has as its system DMS-273.
The subject of test [11] is NCI-H23.
Test [12] has as its system M19-MEL.
The test system of test [13] is DMS-114.
In test [14] the test system is KM-20L2.
The test system of test [15] is PC-3.
Test [16] relates to BT-549.
Test [17] concerns NCI/ADR-RES.
The test system of test [18] is SK-MEL-28.
In test [19] the test system is XF498.
Test [20] has as its system A498.

Structures are written as SMILES. Where “and” joins values, the source holds several entries; their conditions need not be identical. Identical values can stand only once.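 Growth conditions: 96-well plates. Treatment: test compound, 48 hours, 5 concentrations. Analysis: linear interpolation between bracketing concentrations; unreached endpoints set to highest concentration. At the GI50, growth is halved.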 Calls of active or inactive are those of the source. No stated cut-off is given here; in the data, active = GI50 up to about 1.1 µM and inactive = higher.

For the compound `CCOC(=O)c1ncoc1[C@H]1COC(C)(C)O1`, the GI50 in [1], in test [2], in [3], in test [4], in test [5] and in test [6] was > 100 µM (inactive) throughout. In addition, the GI50 in test [7], in test [8], in test [9], in [10], in [11] and in test [12] was > 100 µM (inactive) in each case. Moreover, the GI50 in [13] and in [14] was > 100 µM (inactive) throughout.

On to `CCOC1=NC(C(F)(F)F)(C(F)(F)F)N=C(N2CCOCC2)O1`, for which the GI50 in test [15], in test [1], in test [16], in [3], in [4] and in test [17] was > 100 µM (inactive) in each case. In addition, the GI50 in test [18], in [5], in test [6], in test [7] and in test [11] was > 100 µM (inactive) throughout.

`C=C1C(=O)OCC2C(C(=O)O)=CC3C(C)C(C)=CC123` (configuration not stated): the GI50 was 19.6 µM (inactive) in test [1]; 14.8 µM (inactive) in test [2]; 11.1 µM (inactive) in test [3]; 8.26 µM (inactive) in test [17]; 3.52 µM (inactive) in [18]; 12.5 µM (inactive) in test [19]. Besides, the GI50 is 11 µM (inactive) in test [8]; 12.2 µM (inactive) in test [9]; 7.8 µM (inactive) in test [20]; 18.5 µM (inactive) in test [10]; 8.36 µM (inactive) in test [11]; 14.7 µM (inactive) in test [12]. Besides, the values for the GI50 in test [13] and in [14] were 7.69 µM (inactive) and 11.9 µM (inactive), respectively.

For the compound `CCOc1ccc2nc(-c3ccc(O)cc3)sc2c1`, the GI50 in test [15] is 58.7 µM (inactive); in test [1], 36.7 µM (inactive); in test [16], 31.1 µM (inactive); in [3] it was 46.6 µM (inactive); in [4], 73.1 µM (inactive); in test [17], > 100 µM (inactive). In addition, the GI50 is 61.2 µM (inactive) in [6], > 100 µM (inactive) in test [7], 30.4 µM (inactive) in test [20] and 23.5 µM (inactive) in test [11].

As for `O=C1c2cc3c(cc2[C@@H]2C(O)[C@H]4O[C@H]4C4CCN1C42)OCO3` (some centres not stated), the GI50 was 25.3 µM (inactive) in [1]; > 37.5 µM (inactive) in [3]; > 37.5 µM (inactive) in test [4]; > 37.5 µM (inactive) in test [18]; > 37.5 µM (inactive) in test [19]; > 37.5 µM (inactive) in test [5]. The GI50 in [6], in test [7], in [10], in test [13] and in test [14] was > 37.5 µM (inactive) each time.

For the compound `CN(C)CC(CC1=C(CC(CN(C)C)N(C)C)CCC1)N(C)C` (configuration not stated), the GI50 in test [1], in [3], in [17], in [18], in [19] and in [8] was > 100 µM (inactive) each time. The GI50 in [9], in [20], in [10], in test [11], in test [12] and in [13] was > 100 µM (inactive) in each case. The GI50 in [14] was > 100 µM (inactive).

In the case of `Cc1ccc(NC(=O)CC/C(CC(=O)C(C)(C)C)=N/NC(=O)c2cc3ccccc3cc2O)cc1C`, the GI50 is > 100 µM (inactive) in test [1]; 60.5 µM (inactive) in [2]; 41.7 µM (inactive) in [3]; 80 µM (inactive) in [18]; 31 µM (inactive) in test [6]; 32.5 µM (inactive) in test [7]. Further, the GI50 in test [8] is 30 µM (inactive); in [9], 32.1 µM (inactive); in test [11] it was 19.6 µM (inactive); in test [12] it was 39.4 µM (inactive); in test [13] it was 31.6 µM (inactive); in test [14] it was 34.5 µM (inactive).

As for `Nc1ccc(/N=N/c2ccc(/C=C/c3ccc(/N=N/c4ccc(N)c5ccc(S(=O)(=O)O)cc45)cc3S(=O)(=O)O)c(S(=O)(=O)O)c2)c2cc(S(=O)(=O)O)ccc12`, the GI50 in [2] is > 100 µM (inactive); in [3] it was > 100 µM (inactive); in test [17], > 100 µM (inactive); in test [18], > 100 µM (inactive); in test [19], > 62.2 µM (inactive); in test [8], > 100 µM (inactive). Further, the GI50 in test [9] is > 100 µM (inactive); in test [20], > 100 µM (inactive); in test [10], > 88.1 µM (inactive); in test [11], > 100 µM (inactive); in test [12] it was > 100 µM (inactive); in [13] it was > 100 µM (inactive). In addition, the GI50 in test [14] was > 100 µM (inactive).

In the case of `COc1cccc2c1C(=O)c1c(O)c3c(c(O)c1C2=O)CC(O)(C(C)=O)CC3O` (configuration not stated), the GI50 was 4.61 µM (inactive) in test [1]; 9.18 µM (inactive) in test [2]; 6.04 µM (inactive) in [3]; 5.68 µM (inactive) in [17]; 12.7 µM (inactive) in test [18]; 0.537 µM (active) in [19]. The GI50 in test [8] is 6.85 µM (inactive); in test [9] it was 22.6 µM (inactive); in [20], 1 µM (active); in test [10], 2.3 µM (inactive); in [11], 4.88 µM (inactive); in test [12] it was 5.79 µM (inactive). Besides, the GI50 in [13] is 6.97 µM (inactive); in test [14], 6.85 µM (inactive).

For the compound `COc1ccc(C2=N/C(=C\c3ccccc3)C(=O)O2)cc1`, the GI50 was > 100 µM (inactive) in [15]; > 100 µM (inactive) in test [3]; > 100 µM (inactive) in test [4]; 16.7 µM (inactive) in test [17]; > 100 µM (inactive) in [18]; 17.3 µM (inactive) in [5]. In addition, the GI50 in test [6] and in test [7] was > 100 µM (inactive) throughout.

As for `CCCCCCCCCCSCC(CO)NC(=O)/C=C/c1c(C)[nH]c(=O)[nH]c1=O` (configuration not stated), the GI50 in [2] was 1.71 µM (inactive) and 1.9 µM (inactive); in test [3], 4.02 µM (inactive) and 7.43 µM (inactive); in [17], > 50 µM (inactive) and > 42.8 µM (inactive); in test [18], 1.77 µM (inactive) and 1.85 µM (inactive); in test [19], 519 nM (active) and 687 nM (active); in test [8], 1.44 µM (inactive) and 1.38 µM (inactive). For the same compound, the GI50 in [12] is 1.33 µM (inactive) and 1.06 µM (active); in test [13], 548 nM (active) and 637 nM (active); in test [14] it was 6.46 µM (inactive) and 3.37 µM (inactive).

Regarding `CO/C(=N\N=C(/c1ccccc1)C(F)(F)F)c1ccncc1`, the GI50 in test [15] was 26.1 µM (inactive); in test [1], 45 µM (inactive); in test [16], 31.8 µM (inactive); in test [3], 42.8 µM (inactive); in test [17] it was 20.3 µM (inactive); in test [18] it was 57.7 µM (inactive). Further, the GI50 in [5] is 54.6 µM (inactive); in test [7] it was 52.6 µM (inactive); in test [20], 87.5 µM (inactive); in test [11], 36.2 µM (inactive).

As for `COc1cccc(N2C(=O)CSC2c2c[nH]c3ccccc23)c1` (configuration not stated), the GI50 in test [15], in [16], in test [3], in test [4], in [18] and in test [5] was > 100 µM (inactive) throughout. In addition, the GI50 in test [7] and in [11] was > 100 µM (inactive) each time.

With `CCCCCCCC/C=C\CCCCCCCC(=O)O` [OLEIC ACID], the GI50 in [1] is 118 µM (inactive); in test [2], 68.7 µM (inactive); in [3], > 500 µM (inactive); in test [17] it was 102 µM (inactive); in test [18] it was 149 µM (inactive); in [19], 8.91 µM (inactive). The GI50 is 148 µM (inactive) in test [8]; > 500 µM (inactive) in test [9]; > 431 µM (inactive) in [20]; 110 µM (inactive) in [10]; 87.7 µM (inactive) in test [11]; 101 µM (inactive) in test [12]. Moreover, the GI50 in test [13] was 97.7 µM (inactive); in test [14] it was > 500 µM (inactive).

Turning to `CN(C)C(=O)/C=C/c1c[nH]c(=O)[nH]c1=O`, the GI50 in [1], in [3], in test [17], in test [18], in test [8] and in test [9] was > 500 µM (inactive) in each case. The GI50 in test [20], in test [10], in test [11], in test [13] and in [14] was > 500 µM (inactive) in each case.

These data come from ChEMBL document CHEMBL1201862, “PubChem BioAssay data set” (2004).
